For one assay, the target named is Pim3 kinase (Homo sapiens, UniProt Q86V86). The assay can be described thus: Pim3 ATP depletion assay. It is filed as biochemical.
The next assay addresses Pim2 kinase (Homo sapiens, UniProt Q9P1W9). The assay can be described thus: Pim2 ATP depletion assay.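 Also: Luciferase-based luminescent readout of ATP remaining after PIM2 phosphorylates a BAD peptide, final 5 nM enzyme, 4 µM ATP, 10 µM peptide, 2.5% DMSO, run to roughly half ATP consumption.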 The format is biochemical.
The target in assay [1] is T1, human full length PKCE enzyme (Homo sapiens, UniProt Q02156).
T1 construct: human full length PKCE enzyme purchased from InVitrogen; purchased InVitrogen
T1 sequence (Q02156 1-737): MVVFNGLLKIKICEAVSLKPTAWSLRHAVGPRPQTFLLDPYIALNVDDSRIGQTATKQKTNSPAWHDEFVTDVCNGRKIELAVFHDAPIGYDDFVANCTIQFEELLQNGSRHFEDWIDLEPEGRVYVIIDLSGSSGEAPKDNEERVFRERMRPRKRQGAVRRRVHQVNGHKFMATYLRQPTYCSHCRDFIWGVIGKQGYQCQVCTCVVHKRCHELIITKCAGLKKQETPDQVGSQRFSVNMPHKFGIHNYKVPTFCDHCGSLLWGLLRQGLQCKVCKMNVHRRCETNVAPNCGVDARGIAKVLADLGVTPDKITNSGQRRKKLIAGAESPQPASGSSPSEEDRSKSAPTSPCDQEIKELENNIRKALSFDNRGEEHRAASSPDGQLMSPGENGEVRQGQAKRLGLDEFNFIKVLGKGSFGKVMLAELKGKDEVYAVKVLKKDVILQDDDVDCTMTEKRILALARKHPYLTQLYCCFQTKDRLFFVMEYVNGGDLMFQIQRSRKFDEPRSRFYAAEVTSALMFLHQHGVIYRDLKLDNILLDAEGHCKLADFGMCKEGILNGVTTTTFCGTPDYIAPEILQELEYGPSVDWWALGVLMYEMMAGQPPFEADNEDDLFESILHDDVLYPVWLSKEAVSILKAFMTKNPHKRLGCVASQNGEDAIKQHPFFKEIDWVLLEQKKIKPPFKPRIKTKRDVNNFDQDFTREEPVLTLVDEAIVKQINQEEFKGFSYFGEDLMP
Description: In vitro PKCE assay. The conditions noted are these: 10 nM enzyme, 40 uM peptide substrate, 20 uM ATP, KinaseGlo Plus readout; read-out: PKCε IC50. The format is biochemical. (Kinase-Glo measures the ATP left after a reaction by luminescence.)

In another assay the target is Pim1 kinase (Homo sapiens, UniProt P11309). The assay can be described thus: Pim1 ATP depletion assay.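 Also: Luciferase-luciferin luminescence readout of residual ATP after PIM1 transfers phosphate to a peptide substrate, 40 µM ATP added, reaction run to roughly half ATP consumption.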 It is filed as biochemical. The settings on record: Pim1 ATP depletion assay.
Pim1 kinase, sequence (P11309 whole entry): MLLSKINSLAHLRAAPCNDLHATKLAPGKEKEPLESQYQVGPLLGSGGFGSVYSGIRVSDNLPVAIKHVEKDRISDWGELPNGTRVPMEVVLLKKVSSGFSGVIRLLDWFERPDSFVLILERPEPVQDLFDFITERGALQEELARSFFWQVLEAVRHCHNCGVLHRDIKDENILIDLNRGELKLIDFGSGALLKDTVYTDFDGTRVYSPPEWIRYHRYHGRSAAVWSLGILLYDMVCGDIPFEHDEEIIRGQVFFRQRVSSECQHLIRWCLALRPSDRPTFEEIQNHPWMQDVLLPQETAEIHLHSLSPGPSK
The target in a further assay is KDR kinase (Homo sapiens, UniProt P35968). The assay can be described thus: KDR AlphaScreen assay. The settings on record: KDR IC50 (μM). A general note: In Alpha technology, singlet oxygen from a donor bead excites a nearby acceptor bead.
KDR kinase, sequence (P35968 20-1356): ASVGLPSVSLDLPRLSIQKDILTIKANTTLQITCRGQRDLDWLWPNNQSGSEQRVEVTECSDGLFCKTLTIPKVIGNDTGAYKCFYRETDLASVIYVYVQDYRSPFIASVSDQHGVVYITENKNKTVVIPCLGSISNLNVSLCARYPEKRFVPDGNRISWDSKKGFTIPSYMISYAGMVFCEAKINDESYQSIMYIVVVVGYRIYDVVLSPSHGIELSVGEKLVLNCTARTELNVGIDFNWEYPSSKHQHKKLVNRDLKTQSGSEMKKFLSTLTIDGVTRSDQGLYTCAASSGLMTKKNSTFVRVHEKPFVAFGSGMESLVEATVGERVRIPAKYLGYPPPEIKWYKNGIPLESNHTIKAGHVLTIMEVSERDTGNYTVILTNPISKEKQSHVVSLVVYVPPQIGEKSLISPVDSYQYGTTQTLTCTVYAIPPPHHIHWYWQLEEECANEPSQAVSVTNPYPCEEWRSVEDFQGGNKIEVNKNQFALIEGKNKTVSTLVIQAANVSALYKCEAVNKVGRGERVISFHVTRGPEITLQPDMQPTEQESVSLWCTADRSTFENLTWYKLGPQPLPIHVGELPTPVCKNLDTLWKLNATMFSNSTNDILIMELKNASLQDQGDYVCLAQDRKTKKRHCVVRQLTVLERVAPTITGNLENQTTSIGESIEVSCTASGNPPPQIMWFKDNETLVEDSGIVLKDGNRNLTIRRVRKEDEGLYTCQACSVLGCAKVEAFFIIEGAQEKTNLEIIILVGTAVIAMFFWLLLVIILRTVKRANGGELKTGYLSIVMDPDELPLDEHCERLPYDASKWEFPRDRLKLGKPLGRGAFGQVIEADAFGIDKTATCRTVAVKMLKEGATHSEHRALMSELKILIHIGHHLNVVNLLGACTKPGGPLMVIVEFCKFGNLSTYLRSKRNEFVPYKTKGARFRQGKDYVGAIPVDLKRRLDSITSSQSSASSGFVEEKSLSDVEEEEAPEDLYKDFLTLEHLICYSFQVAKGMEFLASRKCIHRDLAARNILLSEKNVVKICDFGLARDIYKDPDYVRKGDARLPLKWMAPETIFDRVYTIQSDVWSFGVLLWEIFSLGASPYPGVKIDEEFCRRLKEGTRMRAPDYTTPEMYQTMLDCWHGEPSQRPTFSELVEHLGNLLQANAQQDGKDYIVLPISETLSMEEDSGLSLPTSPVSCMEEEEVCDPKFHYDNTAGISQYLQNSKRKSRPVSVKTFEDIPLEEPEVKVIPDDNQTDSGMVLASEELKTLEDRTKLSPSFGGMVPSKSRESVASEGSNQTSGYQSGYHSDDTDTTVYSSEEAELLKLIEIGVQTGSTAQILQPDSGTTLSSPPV

Molecules are shown by their SMILES. Read-outs that look alike come from different tables or passages of the source. Bounds are passed on as bounds.

Pim2 kinase, sequence (Q9P1W9 whole entry): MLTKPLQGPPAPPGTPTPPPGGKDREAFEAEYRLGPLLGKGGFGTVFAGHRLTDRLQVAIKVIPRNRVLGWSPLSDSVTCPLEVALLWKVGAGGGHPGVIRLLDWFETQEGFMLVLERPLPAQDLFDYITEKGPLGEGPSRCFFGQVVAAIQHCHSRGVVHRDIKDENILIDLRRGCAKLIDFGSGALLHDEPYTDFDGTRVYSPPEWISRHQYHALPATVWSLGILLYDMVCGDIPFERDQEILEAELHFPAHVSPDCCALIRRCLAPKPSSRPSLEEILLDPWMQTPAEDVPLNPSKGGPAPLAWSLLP

Regarding `Nc1nccnc1C(=O)Nc1cnccc1C1=CCCCC1` [Example 118, 3-amino-N-(4-cyclohex-1-en-1-ylpyridin-3-yl)pyrazine-2-carboxamide], the half-inhibitory concentration (IC50) is less than 1 µM on Pim3 kinase (read-out: IC50 (μM) PIM3); 1 to 10 µM at Pim2 kinase (read-out: IC50 (μM) PIM2); less than 1000 nM in assay [1]; less than 1 µM on Pim1 kinase (read-out: IC50 (μM) PIM1); less than 1 µM against KDR kinase.
As to `Nc1ncc(Br)nc1C(=O)Nc1cnccc1N1CCCCC1` [Example 119, 3-amino-6-bromo-N-(4-piperidin-1-ylpyridin-3-yl)pyrazine-2-carboxamide], the IC50 is less than 1 µM on Pim3 kinase (read-out: IC50 (μM) PIM3); less than 1 µM at Pim2 kinase (read-out: IC50 (μM) PIM2); less than 1000 nM in assay [1]; less than 1 µM at Pim1 kinase (read-out: IC50 (μM) PIM1); 1 to 10 µM on KDR kinase.
Consider `Nc1nc(N)c(C(=O)Nc2cnccc2N2CCCCC2)nc1Cl` [Example 121, 3,5-diamino-6-chloro-N-(4-piperidin-1-ylpyridin-3-yl)-pyrazine-2-carboxamide], for which the IC50 at Pim3 kinase (read-out: IC50 (μM) PIM3) was less than 1 µM; on Pim2 kinase (read-out: IC50 (μM) PIM2), less than 1 µM; in assay [1] it was greater than 25000 nM; on Pim1 kinase (read-out: IC50 (μM) PIM1), less than 1 µM; on KDR kinase, less than 1 µM.
On to `Nc1nccnc1C(=O)Nc1cnccc1Cl` [Example 125, 3-amino-N-(4-chloropyridin-3-yl)pyrazine-2-carboxamide], for which the concentration for half-maximal inhibition (IC50) on Pim3 kinase (read-out: IC50 (μM) PIM3) was 10 to 25 µM; at Pim2 kinase (read-out: IC50 (μM) PIM2) it was greater than 25 µM; in assay [1] it was 10000 to 25000 nM; at Pim1 kinase (read-out: IC50 (μM) PIM1), 1 to 10 µM; against KDR kinase, 1 to 10 µM.
As to `Nc1nccnc1C(=O)Nc1cnccc1N1CCC2(CC1)OCCO2` [Example 127, 3-amino-N-[4-(1,4-dioxa-8-azaspiro[4.5]dec-8-yl)pyridin-3-yl]pyrazine-2-carboxamide], the concentration for half-maximal inhibition (IC50) on Pim3 kinase (read-out: IC50 (μM) PIM3) is greater than 25 µM; at Pim2 kinase (read-out: IC50 (μM) PIM2), greater than 25 µM; in assay [1], 1000 to 10000 nM; at Pim1 kinase (read-out: IC50 (μM) PIM1), 1 to 10 µM; against KDR kinase, greater than 25 µM.
`Nc1ncc(Br)nc1C(=O)Nc1[nH]c(=O)ncc1N1CCCCC1` [Example 132, 3-amino-6-bromo-N-(2-oxo-5-piperidin-1-yl-2,3-dihydro-pyrimidin-4-yl)pyrazine-2-carboxamide]: the IC50 on Pim3 kinase (read-out: IC50 (μM) PIM3) is less than 1 µM; on Pim2 kinase (read-out: IC50 (μM) PIM2) it was less than 1 µM; in assay [1] it was less than 1000 nM; at Pim1 kinase (read-out: IC50 (μM) PIM1), less than 1 µM; on KDR kinase, less than 1 µM.
`NC(=O)c1cccc(-c2cnc(N)c(C(=O)Nc3ccccc3N3CCCC(N)C3)n2)c1` (stereo not shown) [Example 373, 3-amino-6-(3-carbamoyl-phenyl)-pyrazine-2-carboxylic acid [2-(3-amino-piperidin-1-yl)-phenyl]-amide]: the 50% inhibitory concentration (IC50) in assay [1] is less than 1000 nM; at KDR kinase it was less than 1 µM.
On the same counts, the results for `Nc1ncc(-c2ccccc2F)nc1C(=O)Nc1ccccc1N1CCCC(N)C1` (stereo not shown) [Example 374, 3-amino-6-(2-fluoro-phenyl)-pyrazine-2-carboxylic acid [2-(3-amino-piperidin-1-yl)-phenyl]-amide] are less than 1000 nM and 1 to 10 µM.
On the same counts, the results for `COc1ccc(-c2cnc(N)c(C(=O)Nc3ccccc3N3CCCC(N)C3)n2)cc1` (stereo not shown) [Example 375, 3-amino-6-(4-methoxy-phenyl)-pyrazine-2-carboxylic acid [2-(3-amino-piperidin-1-yl)-phenyl]-amide] are less than 1000 nM and 1 to 10 µM.
`Cc1ccccc1-c1cnc(N)c(C(=O)Nc2[nH]c(=O)ncc2N2CCCC(N)C2)n1` (stereo not shown) [Example 400, 3-amino-6-o-tolyl-pyrazine-2-carboxylic acid [5-(3-amino-piperidin-1-yl)-2-oxo-2,3-dihydro-pyrimidin-4-yl]-amide]: the half-maximal inhibitory concentration (IC50) in assay [1] is 1000 to 10000 nM; against KDR kinase it was less than 1 µM.
For the molecule `CCCOc1ccc(F)c(-c2ncc(N)c(C(=O)Nc3cnccc3N3CCC[C@H](N)C3)n2)c1F` [Example 545, 5-Amino-2-(2,6-difluoro-3-propoxy-phenyl)-pyrimidine-4-carboxylic acid (3-amino-3,4,5,6-tetrahydro-2H-[1,4′]bipyridinyl-3′-yl)-amide], the IC50 was less than 1 µM at Pim3 kinase (read-out: PIM3 IC50), less than 1 µM on Pim2 kinase (read-out: PIM2 IC50), less than 1 µM at Pim1 kinase (read-out: PIM1 IC50) and 10 to 25 µM against KDR kinase.
For the molecule `Nc1cnc(-c2ccc(Cl)cc2F)nc1C(=O)Nc1cnccc1N1CCC[C@H](N)C1` [Example 547, 5-Amino-2-(4-chloro-2-fluoro-phenyl)-pyrimidine-4-carboxylic acid (3-amino-3,4,5,6-tetrahydro-2H-[1,4′]bipyridinyl-3′-yl)-amide], the IC50 was less than 1 µM on Pim3 kinase (read-out: PIM3 IC50), less than 1 µM at Pim2 kinase (read-out: PIM2 IC50), less than 1 µM on Pim1 kinase (read-out: PIM1 IC50) and 10 to 25 µM against KDR kinase.
On to `COc1ccc(F)c(-c2ncc(N)c(C(=O)Nc3cnccc3N3CCC[C@H](N)C3)n2)c1` [Example 549, 5-Amino-2-(2-fluoro-5-methoxy-phenyl)-pyrimidine-4-carboxylic acid (3-amino-3,4,5,6-tetrahydro-2H-[1,4′]bipyridinyl-3′-yl)-amide], for which the concentration for half-maximal inhibition (IC50) on Pim3 kinase (read-out: PIM3 IC50) was less than 1 µM; on Pim2 kinase (read-out: PIM2 IC50), less than 1 µM; at Pim1 kinase (read-out: PIM1 IC50), less than 1 µM; against KDR kinase, 10 to 25 µM.
As for `CCCOc1ccc(F)c(-c2ncc(N)c(C(=O)Nc3cnccc3N3CCC[C@H](N)C3)n2)c1` [Example 550, 5-Amino-2-(2-fluoro-5-propoxy-phenyl)-pyrimidine-4-carboxylic acid (3-amino-3,4,5,6-tetrahydro-2H-[1,4′]bipyridinyl-3′-yl)-amide], the half-maximal inhibitory concentration (IC50) at Pim3 kinase (read-out: PIM3 IC50) is less than 1 µM; on Pim2 kinase (read-out: PIM2 IC50) it was less than 1 µM; on Pim1 kinase (read-out: PIM1 IC50) it was less than 1 µM; on KDR kinase it was 10 to 25 µM.
As to `Cc1cnc(O)cc1-c1ccncc1NC(=O)c1nc(-c2c(F)cccc2F)ccc1N` [Example 612, 3-amino-6-(2,6-difluorophenyl)-N-(2′-hydroxy-5′-methyl-4,4′-bipyridin-3-yl)pyridine-2-carboxamide], the IC50 was less than 1 µM on Pim3 kinase (read-out: PIM3 IC50), 1 to 10 µM on Pim2 kinase (read-out: PIM2 IC50), less than 1 µM at Pim1 kinase (read-out: PIM1 IC50) and 1 to 10 µM at KDR kinase.
Turning to `Nc1ccc(-c2ccccc2F)nc1C(=O)Nc1cnccc1-c1ccnc(O)c1` [Example 614, 3-amino-6-(2-fluorophenyl)-N-(2′-hydroxy-4,4′-bipyridin-3-yl)pyridine-2-carboxamide], the half-inhibitory concentration (IC50) on Pim3 kinase (read-out: PIM3 IC50) is less than 1 µM; on Pim2 kinase (read-out: PIM2 IC50), less than 1 µM; on Pim1 kinase (read-out: PIM1 IC50) it was less than 1 µM; on KDR kinase, 1 to 10 µM.
As to `Nc1cc(-c2ccncc2NC(=O)c2nc(-c3c(F)cccc3F)ccc2N)ncn1` [Example 629, 3-amino-N-[4-(6-aminopyrimidin-4-yl)pyridin-3-yl]-6-(2,6-difluoro-phenyl)pyridine-2-carboxamide], the IC50 was less than 1 µM on Pim3 kinase (read-out: PIM3 IC50), less than 1 µM at Pim2 kinase (read-out: PIM2 IC50), less than 1 µM on Pim1 kinase (read-out: PIM1 IC50) and 10 to 25 µM against KDR kinase.
For `Nc1ccc(C2CCCC2)nc1C(=O)Nc1cnccc1N1CCC[C@H](N)C1` [Example 644, 3-Amino-6-cyclopentyl-pyridine-2-carboxylic acid (3-amino-3,4,5,6-tetrahydro-2H-[1,4′]bipyridinyl-3′-yl)-amide], the IC50 was less than 1 µM on Pim3 kinase (read-out: PIM3 IC50), less than 1 µM at Pim2 kinase (read-out: PIM2 IC50), less than 1 µM on Pim1 kinase (read-out: PIM1 IC50) and 10 to 25 µM on KDR kinase.
As to `Nc1cnc(-c2c(F)cccc2F)nc1C(=O)Nc1cnccc1N1CCC[C@H](O)C1` [Example 648, 5-Amino-2-(2,6-difluoro-phenyl)-pyrimidine-4-carboxylic acid (3-hydroxy-3,4,5,6-tetrahydro-2H-[1,4′]bi-pyridinyl-3′-yl)-amide], the IC50 at Pim3 kinase (read-out: PIM3 IC50) is less than 1 µM; on Pim2 kinase (read-out: PIM2 IC50), less than 1 µM; on Pim1 kinase (read-out: PIM1 IC50) it was less than 1 µM; against KDR kinase it was 10 to 25 µM.
With `Nc1cnc(-c2ccccc2F)nc1C(=O)Nc1cnccc1N1CCC[C@H](O)C1` [Example 649, 5-Amino-2-(2-fluoro-phenyl)-pyrimidine-4-carboxylic acid (3-hydroxy-3,4,5,6-tetrahydro-2H-[1,4′]bipyridinyl-3′-yl)-amide], the IC50 on Pim3 kinase (read-out: PIM3 IC50) is less than 1 µM; at Pim2 kinase (read-out: PIM2 IC50), less than 1 µM; on Pim1 kinase (read-out: PIM1 IC50) it was less than 1 µM; against KDR kinase, 10 to 25 µM.
For the molecule `Nc1cnc(-c2ccccc2)nc1C(=O)Nc1cnccc1N1CCC[C@H](O)C1` [Example 650, 5-Amino-2-phenyl-pyrimidine-4-carboxylic acid (3-hydroxy-3,4,5,6-tetrahydro-2H-[1,4′]bi-pyridinyl-3′-yl)-amide], the half-maximal inhibitory concentration (IC50) on Pim3 kinase (read-out: PIM3 IC50) was less than 1 µM; at Pim2 kinase (read-out: PIM2 IC50), less than 1 µM; at Pim1 kinase (read-out: PIM1 IC50), less than 1 µM; against KDR kinase, 10 to 25 µM.

As usually defined, the IC50 is the concentration that inhibits the measured activity by half.
